Source: the supplement of paper PMC10307832

Key:
Test in all cases: relative viability (nuclei count vs DMSO), 5 days (fraction); higher = more cells survive
RU-SKI 43 + Linsitinib = compound: CC[C@@H](C)CNCC(=O)N1CCC2=C([C@@H]1COC3=CC=CC(=C3)C)C=CS2 [RU-SKI 43] + C[C@]1(O)C[C@@H](c2nc(-c3ccc4ccc(-c5ccccc5)nc4c3)c3c(N)nccn32)C1 [Linsitinib] (partner 1 µM)
Outline: (§1)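 Lung cancer cell lines in 1536-well plates were dosed by pin tool the day after seeding, either with one drug alone or with a fixed anchor-drug dose plus five library-drug doses (not always all listed) in √10 steps. After 5 days, cells were fixed and their nuclei stained in one step (final 0.05% Triton X-100, 1% formaldehyde, 1 ug/ml Hoechst), then counted on 4× images. Relative viability is the nuclei count in treated wells divided by that in vehicle wells. Values are medians of duplicate plates.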

MK-8033 + Foretinib = compound: Cn1cc(-c2cnc3ccc4ccc(CS(=O)(=O)NCc5ccccn5)cc4c(=O)c3c2)cn1 [MK-8033] + COc1cc2c(Oc3ccc(NC(=O)C4(C(=O)Nc5ccc(F)cc5)CC4)cc3F)ccnc2cc1OCCCN1CCOCC1 [Foretinib] (partner 0.25 µM)
Outline: as §1

MK-8033 + Alpelisib = compound: Cn1cc(-c2cnc3ccc4ccc(CS(=O)(=O)NCc5ccccn5)cc4c(=O)c3c2)cn1 [MK-8033] + Cc1nc(NC(=O)N2CCC[C@H]2C(N)=O)sc1-c1ccnc(C(C)(C)C(F)(F)F)c1 [Alpelisib] (partner 2 µM)
Outline: as §1

Irinotecan + Navitoclax = compound: CCc1c2c(nc3ccc(OC(=O)N4CCC(N5CCCCC5)CC4)cc13)-c1cc3c(c(=O)n1C2)COC(=O)[C@]3(O)CC [Irinotecan] + CC1(C)CCC(c2ccc(Cl)cc2)=C(CN2CCN(c3ccc(C(=O)NS(=O)(=O)c4ccc(N[C@H](CCN5CCOCC5)CSc5ccccc5)c(S(=O)(=O)C(F)(F)F)c4)cc3)CC2)C1 [Navitoclax] (partner 0.5 µM)
Outline: as §1

Row | Cell Line | relative viability (RU-SKI 43 + Linsitinib; first compound 0.1 µM) | relative viability (RU-SKI 43 + Linsitinib; first compound 0.3162 µM) | relative viability (RU-SKI 43 + Linsitinib; first compound 1 µM) | relative viability (RU-SKI 43 + Linsitinib; first compound 3.162 µM) | relative viability (RU-SKI 43 + Linsitinib; first compound 10 µM) | relative viability (MK-8033 + Foretinib; first compound 0.02 µM) | relative viability (MK-8033 + Foretinib; first compound 0.06325 µM) | relative viability (MK-8033 + Foretinib; first compound 0.2 µM) | relative viability (MK-8033 + Foretinib; first compound 0.6325 µM) | relative viability (MK-8033 + Foretinib; first compound 2 µM) | relative viability (MK-8033 + Alpelisib; first compound 0.02 µM) | relative viability (MK-8033 + Alpelisib; first compound 0.06325 µM) | relative viability (MK-8033 + Alpelisib; first compound 0.2 µM) | relative viability (MK-8033 + Alpelisib; first compound 0.6325 µM) | relative viability (MK-8033 + Alpelisib; first compound 2 µM) | relative viability (Irinotecan + Navitoclax; first compound 0.6325 µM) | relative viability (Irinotecan + Navitoclax; first compound 2 µM) | relative viability (Irinotecan + Navitoclax; first compound 6.325 µM) | relative viability (Irinotecan + Navitoclax; first compound 20 µM)
1 | NCI-H358 | 0.706 | 0.781 | 0.819 | 0.933 | 0.687 | 0.801 | 0.511 | 0.72 | 0.565 | 0.643 | 0.794 | 0.755 | 0.725 | 0.797 | 0.772 | – | – | – | –
2 | NCI-H1755 | 1.02 | 1.13 | 1.05 | 1.02 | 0.993 | 0.961 | 0.884 | 0.865 | 0.889 | 0.949 | 0.931 | 0.883 | 0.857 | 0.909 | 0.849 | 0.886 | 0.283 | 0.221 | 0.287
3 | LCLC-103H | 1.04 | 1.11 | 1.05 | 1.2 | 1.15 | 0.747 | 0.707 | 0.696 | 0.84 | 0.806 | 1.07 | 0.872 | 0.94 | 0.942 | 0.959 | – | – | – | –
4 | HOP-62 | 1.04 | 0.938 | 1.1 | 1.17 | 1.04 | 1.07 | 1.07 | 1.03 | 1.06 | 1.18 | 0.987 | 0.75 | 1.05 | 0.956 | 0.938 | 0.624 | 0.598 | 0.176 | 0.177
5 | HCC-78 | 0.576 | 0.551 | 0.712 | 0.344 | 0.551 | 0.444 | – | 0.548 | 0.575 | 0.55 | 0.271 | 0.293 | 0.267 | – | 0.357 | 0.75 | 0.525 | 0.202 | 0.191
6 | NCI-H650 | 0.918 | 0.696 | 1.13 | – | 0.911 | 1.06 | 1.08 | 1.02 | 1.02 | 1.02 | 1.08 | 1.1 | 1.01 | 1.16 | 1.17 | – | – | – | –
7 | NCI-H1563 | 1.2 | 1.2 | 1.11 | 1.09 | 1.13 | 0.899 | 0.927 | 0.903 | 0.97 | 0.981 | 1.02 | 0.918 | 0.883 | 1.02 | 0.93 | – | – | – | –
8 | ABC-1 | 0.924 | 0.775 | 0.801 | 0.569 | 0.845 | 1.03 | 0.97 | 0.906 | 0.985 | 1.11 | 1.12 | 1.12 | 1.15 | 1.04 | 1.08 | – | – | – | –
9 | Calu-6 | 0.942 | 1.05 | 0.999 | 0.929 | 1.02 | 0.833 | 0.815 | 0.874 | 0.914 | 0.81 | 1.02 | 1.02 | 0.843 | 0.941 | 0.916 | 0.78 | 0.431 | 0.212 | 0.0896
10 | EBC-1 | 1.04 | 0.936 | 0.847 | 0.956 | 0.827 | 0.103 | 0.0762 | 0.0977 | 0.126 | 0.0876 | 0.832 | 0.686 | 0.904 | 0.678 | 0.207 | 0.304 | 0.406 | 0.378 | 0.133
11 | NCI-H520 | 0.94 | 0.906 | 0.929 | 0.996 | 0.848 | 0.992 | 0.777 | 0.762 | 0.844 | 0.556 | 0.806 | 0.841 | 0.832 | 0.905 | 0.871 | 0.851 | 0.634 | 0.288 | 0.227
12 | NCI-H322M | 0.832 | 0.915 | 0.967 | 1.02 | 0.893 | 0.918 | 0.868 | 0.955 | 1.03 | 0.965 | 0.697 | 0.77 | 0.801 | 0.792 | 0.839 | 0.733 | 0.453 | 0.348 | 0.338
13 | NCI-H1623 | – | – | – | – | – | 0.904 | 0.729 | 0.889 | 0.812 | 0.943 | – | – | – | – | – | – | – | – | –
14 | ChaGo-K-1 | – | – | – | – | – | 0.891 | 0.834 | 1.05 | 0.967 | 0.628 | – | – | – | – | – | – | 0.784 | 0.407 | 0.33
15 | HCC-44 | 0.595 | 0.647 | 0.835 | 0.69 | 0.645 | – | – | – | – | – | 0.798 | 0.775 | 0.751 | 0.796 | 0.789 | 0.904 | 0.232 | 0.231 | 0.27
16 | NCI-H2342 | – | – | – | – | – | 1.04 | 1.08 | 0.976 | 0.947 | 1.07 | – | – | – | – | – | – | – | – | –
17 | NCI-H1792 | 0.46 | 0.601 | 0.596 | 0.585 | 0.538 | – | – | – | – | – | 0.729 | 0.59 | 0.768 | 0.776 | 0.693 | 0.598 | 0.72 | 0.162 | 0.095
18 | NCI-H661 | 0.433 | 0.645 | 0.557 | 0.518 | 0.651 | 1.04 | 0.995 | 0.997 | 0.919 | 0.985 | 0.581 | 0.261 | 0.634 | 0.592 | 0.778 | – | – | – | –
19 | NCI-H1650 | – | – | – | – | – | 1.13 | 1.04 | 1.07 | 1.08 | 0.951 | – | – | – | – | – | 1.07 | 0.808 | 0.394 | 0.316
20 | SW 900 | – | – | – | – | – | 0.732 | 0.813 | 0.665 | 0.88 | 0.79 | – | – | – | – | – | – | – | – | –
21 | NCI-H2170 | – | – | – | – | – | 1.03 | 0.966 | 0.959 | 1.06 | 1.09 | 0.652 | 0.758 | 0.691 | 0.773 | 0.772 | 0.52 | 0.348 | 0.308 | 0.192
